“And” between values parts separate entries of the source, which are not always exact repeats. Equal entries are not always repeated. Structures can show the parent of a compound that is named as a salt. Where two headings read alike, the source gives them in different places.
Legend:
ASIC1a channel = molecular target: T1, ASIC1a channel (Mus musculus, UniProt Q6NXK8); experiment: Table 1, inhibition in neurons; format: cell-based
T1 construct: endogenous in cells
T1 sequence (Q6NXK8 1-526): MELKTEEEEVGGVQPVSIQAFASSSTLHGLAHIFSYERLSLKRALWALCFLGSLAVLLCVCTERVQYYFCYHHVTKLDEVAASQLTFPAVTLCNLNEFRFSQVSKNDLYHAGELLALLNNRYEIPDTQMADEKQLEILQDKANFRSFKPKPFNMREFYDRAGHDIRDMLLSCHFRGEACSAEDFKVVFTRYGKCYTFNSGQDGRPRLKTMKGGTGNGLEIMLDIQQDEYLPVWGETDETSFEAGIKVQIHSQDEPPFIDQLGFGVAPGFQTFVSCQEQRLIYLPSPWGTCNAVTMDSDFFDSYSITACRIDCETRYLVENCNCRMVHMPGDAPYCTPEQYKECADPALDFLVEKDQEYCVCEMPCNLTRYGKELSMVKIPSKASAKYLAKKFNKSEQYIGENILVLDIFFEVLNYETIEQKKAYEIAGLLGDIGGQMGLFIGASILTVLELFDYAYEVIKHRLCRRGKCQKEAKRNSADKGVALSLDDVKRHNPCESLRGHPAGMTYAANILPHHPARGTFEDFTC
Method: ASIC currents were recorded with whole-cell patch-clamp and fast-perfusion techniques. […] For low pH solutions, various amounts of HCl were added. For solutions with pH<6.0, MES instead of HEPES was used for more reliable pH buffering. Patch electrodes contained (in mM) 140 CsF, 2.0 MgCl2, 1.0 CaC2, 10 HEPES, 11 EGTA, 4 MgATP (pH 7.3), 300 mOsm. […] A multibarrel perfusion system (SF-77B, Warner Instrument Co.) was employed for rapid exchange of solutions.

[1] = Mouse 60 min MCAO, intracerebroventricular injection one hour after MCAO, infarct volume; conditions: mice, evaluated one day after ischemia induction, FIG. 18
ASIC2a = molecular target: T2, ASIC2a (Homo sapiens, UniProt Q16515); experiment: Blockade of ASIC 2a current expressed in CHO cells; format: cell-based
T2 construct: expressed in transfected cells; host or cells: CHO
T2 sequence (Q16515 1-512): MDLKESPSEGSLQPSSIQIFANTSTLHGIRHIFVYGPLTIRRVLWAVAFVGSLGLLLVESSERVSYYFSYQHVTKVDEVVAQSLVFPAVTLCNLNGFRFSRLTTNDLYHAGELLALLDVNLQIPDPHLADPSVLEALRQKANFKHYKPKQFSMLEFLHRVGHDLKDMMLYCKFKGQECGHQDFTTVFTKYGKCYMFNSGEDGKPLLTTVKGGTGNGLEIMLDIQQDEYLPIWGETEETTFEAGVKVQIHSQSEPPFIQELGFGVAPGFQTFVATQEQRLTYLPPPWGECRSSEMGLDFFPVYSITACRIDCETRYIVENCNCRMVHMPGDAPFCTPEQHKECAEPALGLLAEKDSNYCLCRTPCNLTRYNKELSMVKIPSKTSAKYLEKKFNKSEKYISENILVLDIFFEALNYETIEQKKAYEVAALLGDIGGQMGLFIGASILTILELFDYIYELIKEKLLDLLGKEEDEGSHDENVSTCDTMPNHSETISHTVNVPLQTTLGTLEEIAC

Knockout 1a = experiment: Table 1, inhibition in Knockout 1a; format: cell-based
Knockout 2a = experiment: Table 1, inhibition in Knockout 2a; format: cell-based
ASIC1a [2] = molecular target: T3, ASIC1a (Homo sapiens, UniProt P78348); experiment: Blockade of ASIC 1a current expressed in CHO cells; format: cell-based; set-up: expressed in transfected cells; host or cells: CHO; conditions: for block of ASIC1a current: CHO cells, FIG. 16
T3 sequence (P78348 1-528): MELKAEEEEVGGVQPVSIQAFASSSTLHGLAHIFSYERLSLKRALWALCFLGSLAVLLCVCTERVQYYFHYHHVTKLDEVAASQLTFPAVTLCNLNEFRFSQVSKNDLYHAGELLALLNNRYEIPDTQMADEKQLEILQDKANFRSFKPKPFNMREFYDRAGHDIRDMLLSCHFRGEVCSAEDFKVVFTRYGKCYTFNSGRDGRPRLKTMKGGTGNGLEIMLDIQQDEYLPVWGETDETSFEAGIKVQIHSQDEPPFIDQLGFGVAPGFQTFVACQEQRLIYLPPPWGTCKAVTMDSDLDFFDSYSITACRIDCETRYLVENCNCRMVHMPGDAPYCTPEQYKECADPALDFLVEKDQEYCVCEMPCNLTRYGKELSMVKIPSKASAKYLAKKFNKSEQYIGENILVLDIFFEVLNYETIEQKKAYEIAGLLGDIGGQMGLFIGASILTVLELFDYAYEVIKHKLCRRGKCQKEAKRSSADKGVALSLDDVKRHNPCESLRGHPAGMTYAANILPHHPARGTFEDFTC

[3] = test system: cultured cortical neurons; experiment: LDH release after combined 1 hr OGD/acidosis in cortical neurons; format: cell-based, mouse; conditions: trolox 500 µM, L-NAME 300 µM; n=8-11
Method: (§1) Background absorbance at 620 was subtracted.
Neurons were washed three times and incubated with glucose-free ECF at pH 7.4 or 6.0 in an anaerobic chamber (Model 1025, Forma Scientific) with an atmosphere of 85% N2, 10% H2, and 5% CO2 at 35° C. Oxygen-glucose deprivation (OGD) was terminated after 1 hr by replacing the glucose-free ECF with Neurobasal medium and incubating the cultures in a normal cell culture incubator.
As the magnitude of ASIC currents may be potentiated by cellular and neurochemical components of brain ischemia-cell swelling, arachidonic acid, and lactate and, more importantly, the desensitization of ASIC currents may be reduced dramatically by modeled ischemia (see FIGS. 5A and 5C), activation of ASICs in ischemic conditions is expected to produce greater neuronal injury. To test this hypothesis, neurons were subjected to 1 hr acid treatment under oxygen and glucose deprivation (OGD). MK801, CNQX, and nimodipine were added to all solutions to inhibit voltage-gated Ca^2+ channels and glutamate receptor-mediated cell injury associated with OGD. One hour incubation with pH 7.4 ECF under OGD conditions induced only 27.1% ± 3.5% of maximal LDH release at 24 hr (n=5, FIG. 9D).

ASIC1^-/- neurons = format: cell-based, mouse; conditions: 1 hr treatment with 1 mM NMDA+10 µM glycine in Mg^2+-free pH 7.4 ECF; n=4
Method: Following anesthesia with halothane, cerebral cortices were dissected from E16 Swiss mice or P1 ASIC1+/+ and ASIC1-/- mice and incubated with 0.05% trypsin-EDTA for 10 min at 37° C. Tissues were then triturated with fire-polished glass pipettes and plated on poly-L-ornithine-coated 24-well plates or 25x25 mm glass coverslips at a density of 2.5x10^5 cells per well or 10^6 cells per coverslip. Neurons were cultured with MEM supplemented with 10% horse serum (for E16 cultures) or Neurobasal medium supplemented with B27 (for PI cultures) and used for electrophysiology and toxicity studies after 12 days. Glial growth was suppressed by addition of 5-fluoro-2-deoxyuridine and uridine, yielding cultured cells with 90% neurons as determined by NeuN and GFAP staining (data not shown).
as §1
. […] . In contrast to acid incubation, 1 hr treatment of ASIC1^-/- neurons with 1 mM NMDA+10 µM glycine (in Mg^2+-free [pH 7.4] ECF) induced 84.8% ± 1.4% of maximal LDH release at 24 hr (n=4, FIG. 9C), indicating normal response to other cell injury processes.

ASIC1a [4] = molecular target: T3, ASIC1a; experiment: Inhibition of the ASIC1a channel (IC50 from Table 1, cell system not given); format: cell-based; conditions: quoted in the text from Table 1
[5] = 0.9% saline; cited from earlier work
[6] = Mouse 60 min MCAO, memantine i.p. with or without PcTX venom i.c.v., infarct volume; format: in vivo, mice
cortical neurons = experiment: Fura-2 Ca^2+ imaging of acid-induced increase of [Ca^2+]i in cortical neurons; format: cell-based, mouse; conditions: preincubation with 1 µM; n=6
[7] = read-out: Inhibition of the ASIC1a channel, Neuron (-60 mV)
[8] = Neuron (-60 mV), read-out: Inhibition of the ASIC1a channel, Neuron (-60 mV)

Compound: CN(C)c1nc(N)c(C(=O)NC(=N)N)nc1Cl [5-(N, N-Dimenthyl)amiloride hydrochloride]
- IC50 (ASIC1a channel; [7]): 14.8 ± 7.1 µM

Compound: CC(C)CN(C)c1nc(N)c(C(=O)N=C(N)N)nc1Cl [5-(N-Methyl-N-isobutyl)-amiloride]
- IC50 (ASIC1a channel; [7]): 24.3 µM

Compound: CC(C)COCC(CN(Cc1ccccc1)c1ccccc1)N1CCCC1 (stereo not drawn) [Bepridil, bepridil]
- IC50 (ASIC1a channel; [8]): 82.9 ± 5.2 µM
- infarct volume [1]: effectively reduce infarct volume

Compound: CCN(c1nc(N)c(C(=O)NC(=N)N)nc1Cl)C(C)C [EIPA, 5-(N-ethyl-N-isopropyl) amiloride]
- IC50 (ASIC2a; CHO 2a, read-out: Inhibition, CHO 2a): 31 µM
- block of ASIC2a current (ASIC2a; CHO cells, FIG. 17): dose-dependent
- IC50 (ASIC1a channel; Neuron (-20 mV), read-out: Inhibition of the ASIC1a channel, Neuron (-20 mV)): 32.2 ± 6.3 µM
- IC50 (ASIC1a channel; [8]): 43.3 ± 1.43 µM
- IC50 (Knockout 1a): 35.9 ± 2.1 µM
- IC50 (Knockout 2a): 20.1 ± 2.2 µM
- IC50 (ASIC1a [2]; CHO 1a, read-out: Inhibition of the ASIC1a channel, CHO 1a): 111 ± 30 µM
- block of ASIC1a current (ASIC1a [2]): dose-dependent

Compound: COC(=O)[C@@H](N)CCCNC(=N)N[N+](=O)[O-] [L-NAME]
- LDH release induced by combined 1 hr OGD/acidosis [3]: not inhibited

Compound: CN[C@H](CC(=O)O)C(=O)O [NMDA]
- maximal LDH release at 24 hr (ASIC1^-/- neurons): 84.8% ± 1.4%

Compound: NC(=NCc1ccccc1)NC(=O)c1nc(Cl)c(N)nc1N [benzamil]
- IC50 (ASIC1a [4]): 4.9 µM and 4 to 8 µM
- reported solubility [5]: 0.4 mg/ml and 1.7 mM

Compound: CC12CC3CC(C)(C1)CC(N)(C3)C2 [memantine]
- infarct volume ([6]; ASIC1^-/- mice, memantine i.p., n=5): 27.7 ± 1.6 mm^3
- infarct volume ([6]; ASIC^+/+ mice, 10 mg/kg memantine i.p., saline 101.4 ± 9.4, n=5): 61.6 ± 12.7 mm^3

Compound: NC(=Nc1ccccc1)NC(=O)c1nc(Cl)c(N)nc1N [phenamil]
- block of ASIC1a current (ASIC1a [2]): dose-dependent

Compound: C/C=C(/C)C(=O)O[C@H]1C(C)=C2[C@H]([C@@H]1OC(=O)CCCCCCC)[C@@](C)(OC(C)=O)C[C@H](OC(=O)CCC)[C@@]1(O)[C@H]2OC(=O)[C@@]1(C)O [thapsigargin]
- sustained component of Ca^2+ increase (cortical neurons): partially inhibited

Compound: Cc1c(C)c2c(c(C)c1O)CCC(C)(C(=O)O)O2 (stereo not drawn) [trolox]
- LDH release induced by combined 1 hr OGD/acidosis [3]: not inhibited

Source: patent publication EP3035931B1, “COMPOSITION FOR REDUCING NERVOUS SYSTEM INJURY AND METHOD OF MAKING AND USE THEREOF” (Morehouse School of Medicine, priority 2013, dated 2015)
